Data reported in paper PMC5513091, “A novel Alzheimer’s disease drug candidate targeting inflammation and fatty acid metabolism” (Alzheimer's Research & Therapy, 2017).

System: cortex metabolites
Assay: Metabolomic analysis of cortex
Type: in vivo, mice
Conditions: cortex
Procedure: Metabolomic analyses were conducted at Metabolon (Durham, NC, USA) as described previously. For statistical analyses and data display, any missing values were assumed to be below the limits of detection and imputed with the compound minimum (minimum value imputation). An estimate of the FDR (Q value) was calculated to take into account the multiple comparisons that normally occur in metabolomics-based studies, with Q < 0.05 used as an indication of high confidence in a result. The MetaboAnalyst tool was used to generate heat maps.

In the case of Cc1ccc(N(/N=C/c2cccc(OC(F)(F)F)c2)C(=O)C(F)(F)F)c(C)c1 [CAD-31], the “mannose-6-phosphate Fold Change” value (AD+31/AD, p-value 0.9434) is reported as 1.05, the “cytidine 5'-monophospho-N-acetylneuraminic acid Fold Change” value (AD+31/AD, p-value 0.9957) is reported as 1 and the “ergothioneine Fold Change” value (C+31/C, p-value 0.0002) is reported as 0.56. For the same compound, the “17-methylstearate Fold Change” value (C+31/C, p-value 0.0006) was 0.54, the “phenol sulfate Fold Change” value (C+31/C, p-value 0.0029) was 0.41 and the “N-delta-acetylornithine Fold Change” value (C+31/C, p-value 0.0034) was 1.51. For the same compound, the “gamma-glutamylhistidine Fold Change” value (C+31/C, p-value 0.0046) was 0.55, the “1-palmitoylglycerol (16:0) Fold Change” value (C+31/C, p-value 0.0049) was 0.67 and the “dihomo-linoleate (20:2n6) Fold Change” value (C+31/C, p-value 0.0052) was 0.53. For the same compound, the “linoleoyl ethanolamide Fold Change” value (C+31/C, p-value 0.0058) was 0.52, the “arachidate (20:0) Fold Change” value (C+31/C, p-value 0.0074) was 0.59 and the “pyroglutamine* Fold Change” value (C+31/C, p-value 0.0076) was 1.27. The “adenosine 2'-monophosphate (2'-AMP) Fold Change” value (C+31/C, p-value 0.0085) was 1.49, the “docosatrienoate (22:3n3) Fold Change” value (C+31/C, p-value 0.0095) was 0.35 and the “stearate (18:0) Fold Change” value (C+31/C, p-value 0.01) was 0.61. The “nonadecanoate (19:0) Fold Change” value (C+31/C, p-value 0.0112) was 0.63, the “1-oleoylglycerol (18:1) Fold Change” value (C+31/C, p-value 0.0125) was 0.6 and the “10-nonadecenoate (19:1n9) Fold Change” value (C+31/C, p-value 0.0132) was 0.6. The “3-hydroxybutyrylcarnitine (2) Fold Change” value (C+31/C, p-value 0.016) was 1.78, the “adrenate (22:4n6) Fold Change” value (C+31/C, p-value 0.0161) was 0.5 and the “oleate/vaccenate (18:1) Fold Change” value (C+31/C, p-value 0.0172) was 0.59. The “eicosenoate (20:1) Fold Change” value (C+31/C, p-value 0.0212) was 0.61, the “lactate Fold Change” value (C+31/C, p-value 0.0212) was 1.26 and the “palmitate (16:0) Fold Change” value (C+31/C, p-value 0.0241) was 0.65. The “margarate (17:0) Fold Change” value (C+31/C, p-value 0.0267) was 0.61, the “2-hydroxydecanoate Fold Change” value (C+31/C, p-value 0.0327) was 0.68 and the “1-arachidonylglycerol (20:4) Fold Change” value (C+31/C, p-value 0.0338) was 0.66. For the same compound, the “3-hydroxybutyrate (BHBA) Fold Change” value (C+31/C, p-value 0.0349) was 1.87, the “2-palmitoylglycerol (16:0) Fold Change” value (C+31/C, p-value 0.035) was 0.65 and the “succinylcarnitine Fold Change” value (C+31/C, p-value 0.0357) was 0.72. For the same compound, the “oleoyl-oleoyl-glycerol (18:1/18:1) [2]* Fold Change” value (C+31/C, p-value 0.0363) was 1.12, the “acetyl CoA Fold Change” value (C+31/C, p-value 0.0372) was 1.87 and the “erucate (22:1n9) Fold Change” value (C+31/C, p-value 0.0376) was 0.64. The “glycerol 3-phosphate Fold Change” value (C+31/C, p-value 0.0387) was 0.8, the “docosadienoate (22:2n6) Fold Change” value (C+31/C, p-value 0.0388) was 0.62 and the “acetylcarnitine Fold Change” value (C+31/C, p-value 0.0422) was 1.53. The “1-docosahexaenoylglycerol (22:6) Fold Change” value (C+31/C, p-value 0.0423) was 0.64, the “1-stearoyl-GPG (18:0) Fold Change” value (C+31/C, p-value 0.0449) was 0.59 and the “arachidonoyl ethanolamide Fold Change” value (C+31/C, p-value 0.0462) was 0.86. For the same compound, the “glucosamine-6-phosphate Fold Change” value (C+31/C, p-value 0.0462) was 1.4, the “glutamate Fold Change” value (C+31/C, p-value 0.0465) was 1.09 and the “tricosenoate (23:1) Fold Change” value (C+31/C, p-value 0.0476) was 0.64. For the same compound, the “mead acid (20:3n9) Fold Change” value (C+31/C, p-value 0.0477) was 0.6, the “adenosine 5'-diphosphoribose (ADP-ribose) Fold Change” value (C+31/C, p-value 0.0695) was 1.15 and the “sedoheptulose-7-phosphate Fold Change” value (C+31/C, p-value 0.0888) was 1.15. The “2-hydroxystearate Fold Change” value (C+31/C, p-value 0.0897) was 0.58, the “UDP-N-acetylglucosamine/galactosamine Fold Change” value (C+31/C, p-value 0.0923) was 1.08 and the “2-oleoylglycerol (18:1) Fold Change” value (C+31/C, p-value 0.0938) was 0.77. The “putrescine Fold Change” value (C+31/C, p-value 0.0994) was 1.2, the “2-methylcitrate/homocitrate Fold Change” value (C+31/C, p-value 0.1114) was 1.09 and the “1-palmitoyl-GPG (16:0)* Fold Change” value (C+31/C, p-value 0.126) was 0.57. For the same compound, the “mannose-6-phosphate Fold Change” value (C+31/C, p-value 0.1316) was 1.33, the “glutamate, gamma-methyl ester Fold Change” value (C+31/C, p-value 0.1579) was 1.35 and the “anserine Fold Change” value (C+31/C, p-value 0.1772) was 1.18. The “gulonate* Fold Change” value (C+31/C, p-value 0.179) was 1.11, the “glucose 6-phosphate Fold Change” value (C+31/C, p-value 0.199) was 1.27 and the “fructose-6-phosphate Fold Change” value (C+31/C, p-value 0.2317) was 1.26. The “methylphosphate Fold Change” value (C+31/C, p-value 0.233) was 1.1, the “1-oleoyl-2-linoleoyl-GPC (18:1/18:2)* Fold Change” value (C+31/C, p-value 0.2649) was 0.92 and the “N-formylmethionine Fold Change” value (C+31/C, p-value 0.286) was 1.07. For the same compound, the “acetylphosphate Fold Change” value (C+31/C, p-value 0.2996) was 1.11, the “phosphoethanolamine Fold Change” value (C+31/C, p-value 0.3099) was 1.04 and the “azelate (nonanedioate) Fold Change” value (C+31/C, p-value 0.3211) was 0.81. For the same compound, the “methionine Fold Change” value (C+31/C, p-value 0.3291) was 1.08, the “coenzyme A Fold Change” value (C+31/C, p-value 0.3422) was 0.88 and the “arabinose Fold Change” value (C+31/C, p-value 0.3687) was 1.05. For the same compound, the “1-palmitoyl-2-gamma-linolenoyl-GPC (16:0/18:3n6)* Fold Change” value (C+31/C, p-value 0.3875) was 0.94, the “3-sulfo-nervonoyl-galactosylceramide (d18:1/24:1) Fold Change” value (C+31/C, p-value 0.4046) was 0.97 and the “N-acetylmethionine Fold Change” value (C+31/C, p-value 0.4061) was 0.96. The “UDP-galactose Fold Change” value (C+31/C, p-value 0.4075) was 0.86, the “N-acetylglucosaminylasparagine Fold Change” value (C+31/C, p-value 0.4104) was 0.96 and the “prolylglycine Fold Change” value (C+31/C, p-value 0.4172) was 0.96. For the same compound, the “1-stearoyl-GPC (18:0) Fold Change” value (C+31/C, p-value 0.4215) was 1.08, the “N-acetylalanine Fold Change” value (C+31/C, p-value 0.4319) was 1.04 and the “1-oleoyl-2-arachidonoyl-GPI (18:1/20:4) * Fold Change” value (C+31/C, p-value 0.4368) was 1.04. For the same compound, the “1-(1-enyl-stearoyl)-2-arachidonoyl-GPE (P-18:0/20:4)* Fold Change” value (C+31/C, p-value 0.4593) was 0.98, the “UDP-glucose Fold Change” value (C+31/C, p-value 0.4697) was 0.92 and the “galactose 1-phosphate Fold Change” value (C+31/C, p-value 0.4772) was 1.14. The “1-methylimidazoleacetate Fold Change” value (C+31/C, p-value 0.4871) was 1.07, the “cytidine 5'-monophospho-N-acetylneuraminic acid Fold Change” value (C+31/C, p-value 0.4904) was 0.95 and the “ribose Fold Change” value (C+31/C, p-value 0.5044) was 1.04. The “glycerate Fold Change” value (C+31/C, p-value 0.512) was 0.86, the “glycerophosphoethanolamine Fold Change” value (C+31/C, p-value 0.5491) was 1.04 and the “palmitoylcholine Fold Change” value (C+31/C, p-value 0.5572) was 0.92. For the same compound, the “1-stearoyl-2-oleoyl-GPI (18:0/18:1)* Fold Change” value (C+31/C, p-value 0.5722) was 1.05, the “sphingomyelin (d18:1/18:1, d18:2/18:0) Fold Change” value (C+31/C, p-value 0.5944) was 1.03 and the “5-methylthioadenosine (MTA) Fold Change” value (C+31/C, p-value 0.6209) was 1.02. For the same compound, the “6-phosphogluconate Fold Change” value (C+31/C, p-value 0.6443) was 0.95, the “3-hydroxy-3-methylglutarate Fold Change” value (C+31/C, p-value 0.6796) was 1.02 and the “2'-deoxycytidine Fold Change” value (C+31/C, p-value 0.6852) was 1.04. The “N-acetylglutamate Fold Change” value (C+31/C, p-value 0.7525) was 0.99, the “beta-citrylglutamate Fold Change” value (C+31/C, p-value 0.7663) was 1.03 and the “O-methyltyrosine Fold Change” value (C+31/C, p-value 0.8149) was 1.04. For the same compound, the “N-acetyl-glucosamine 1-phosphate Fold Change” value (C+31/C, p-value 0.8284) was 1.06, the “1-palmitoyl-2-oleoyl-GPS (16:0/18:1) Fold Change” value (C+31/C, p-value 0.8378) was 1.01 and the “hypoxanthine Fold Change” value (C+31/C, p-value 0.8444) was 1.01. The “lysine Fold Change” value (C+31/C, p-value 0.8761) was 1, the “hippurate Fold Change” value (C+31/C, p-value 0.9003) was 1.01 and the “N-acetylneuraminate Fold Change” value (C+31/C, p-value 0.9027) was 1.01. For the same compound, the “1-palmitoyl-2-palmitoleoyl-GPC (16:0/16:1)* Fold Change” value (C+31/C, p-value 0.9106) was 1, the “glycerophosphoglycerol Fold Change” value (C+31/C, p-value 0.9156) was 1 and the “deoxycarnitine Fold Change” value (C+31/C, p-value 0.9284) was 1.02. The “mannose Fold Change” value (C+31/C, p-value 0.9846) was 0.96.
